# Data published in US20220146526A1, “METHOD FOR EVALUATING SAMPLE, ANALYSIS METHOD, METHOD FOR DETECTING DEGRADED SAMPLE, MARKER FOR DETECTING DEGRADED BLOOD PLASMA SAMPLE, AND MARKER FOR DETECTING DEGRADED SERUM SAMPLE” (SHIMADZU CORPORATION, priority 2019, published 2022).
# Structures can show the parent of a compound that is named as a salt.
# Assays:
# Type in all cases: physicochemical, human
# [1] = GC/MS of blood plasma sample: number of times of freezing and thawing (Table C); details: for Rate of increase or decrease: detection intensity relative to 1 at 2 times; for Increase or decrease: detection intensity
# Method: (§1) At room temperature, 5 mL of blood from a healthy subject was taken into a blood-collecting vessel containing EDTA, and the blood-collecting vessel was inverted for mixing, then cooled, and allowed to stand at 4° C. Here, in order to investigate how the detection intensity of molecules contained in the sample was affected in a case where the time to cooling was set to 5 minutes or more as compared to that in a case where the time to cooling was set to 1 minute or less, preparations were performed under both the former condition and the latter condition. After standing, the blood sample was subjected to centrifugation under a condition of 4° C., 3000 rpm, and 15 minutes. […] After centrifugation, the blood-collecting vessel was left to stand at room temperature for 30 minutes, and the blood plasma was isolated during this 30 minutes. The obtained blood plasma sample was frozen and stored. Here, in order to investigate how the detection intensity of molecules contained in the sample was affected in cases where freezing and thawing was performed 4 times, 6 times, and 10 times after freezing as compared to that in a case where freezing and thawing was performed 2 times after freezing, freezing and thawing was performed under the respective conditions of 2, 4, 6, and 10 times.
# (§2) Frozen blood plasma samples and serum samples were subjected to GC/MS or LC/MS. In GC/MS, the blood plasma samples and serum samples were subjected to methoxymation and trimethylsilylation and then introduced to GC-MS.
# (§3) GC/MS was conducted using GCMS·TQ8040 (Shimadzu Corporation) that was a GC·MS equipped with AOC·20i (Shimadzu Corporation) as an autosampler.
# (§4) Column: BPX5 (inner diameter of 0.25 mm, length of 30 m, and film thickness of 0.25 μm) (SGE)
# (§5) Column temperature: maintained at 60° C. for 2 minutes, then raised at 15° C./min, and maintained at 330° C. for 3 minutes.
# (§6) Inlet temperature: 250° C.
# (§7) Carrier gas control mode: constant linear velocity of 39.0 cm/sec
# (§8) Sample introduction method: split (split ratio of 30:1) Injection volume: 1 μL
# (§9) Ionization method: electron ionization
# (§10) Ionization current: 60 μA
# (§11) Interface temperature: 280° C.
# (§12) Ion source temperature: 200° C.
# (§13) Mode: multiple reaction monitoring (MRM)
# The rate of increase or decrease in Table C is the value of detection intensity relative to 1 that is the detection intensity in a case where the number of times of freezing and thawing is set to 2 times.
# [2] = GC/MS of serum sample: number of times of freezing and thawing (Table I); design: key to Rate of increase or decrease / Rate of increase or decrease (first value, increase): detection intensity relative to 2 freeze-thaw cycles = 1; details: for Rate of increase or decrease: detection intensity relative to 1 at 2 times
# Method: (§14) After standing, the blood sample was subjected to centrifugation under a condition of room temperature, 3500 rpm, and 5 minutes. […] After centrifugation, the blood-collecting vessel was left to stand at room temperature, and the serum was isolated during this time. Here, in order to investigate how the detection intensity of molecules contained in the sample was affected in cases where the time during which the blood-collecting vessel was left at room temperature was set to 1 hour and 6 hours as compared to that in a case where the time was set to 30 minutes, preparations were performed under the respective conditions of 30 minutes, 1 hour, and 6 hours. The obtained serum sample was frozen and stored. Here, in order to investigate how the detection intensity of molecules contained in the sample was affected in cases where freezing and thawing was performed 4 times, 6 times, and 10 times after freezing as compared to that in a case where freezing and thawing was performed 2 times after freezing, freezing and thawing was performed under the respective conditions of 2, 4, 6, and 10 times.
# as §2, §3, §4, §5, §6, §7, §8, §9, §10, §11, §12, §13
# The rate of increase or decrease in Table I is the value of detection intensity relative to 1 that is the detection intensity in a case where the number of times of freezing and thawing is set to 2 times.
# [3] = GC/MS of serum sample: time from centrifugation to isolation (Table H)
# Method: as §14, §2, §3, §4, §5, §6, §7, §8, §9, §10, §11, §12, §13
# The rate of increase or decrease in Table H is the value of detection intensity relative to 1 that is the detection intensity in a case where the time from centrifugation to isolation is set to 30 minutes.
# [4] = GC/MS of blood plasma sample: time from blood collection to centrifugation (Table A); details: for Rate of increase or decrease: detection intensity relative to 1 at 15 minutes, after 12 hours; for Rate of increase or decrease / Increase or decrease: blood collection to centrifugation; for Increase or decrease: detection intensity
# Method: as §1, §2, §3, §4, §5, §6, §7, §8, §9, §10, §11, §12, §13
# The rate of increase or decrease in Table A is the value of detection intensity relative to 1 that is the detection intensity in a case where the time from blood collection to centrifugation is set to 15 minutes.
# [5] = GC/MS of serum sample: time from blood collection to centrifugation (Table G); details: blood collection to centrifugation; for Rate of increase or decrease: detection intensity relative to 1 at 15 minutes; for Increase or decrease: detection intensity
# Method: as §14, §2, §3, §4, §5, §6, §7, §8, §9, §10, §11, §12, §13
# The rate of increase or decrease in Table G is the value of detection intensity relative to 1 that is the detection intensity in a case where the time from blood collection to centrifugation is set to 15 minutes.
# [6] = freezing and thawing 6 times vs 2 times
smiles,measurement,setting,value
OB(O)O [Boric acid],Rate of increase or decrease,[1]; freezing and thawing 4 times,1.56
same,Increase or decrease,[1]; freezing and thawing 4 times vs 2 times,Increase
same,Rate of increase or decrease,"[2]; serum, GC/MS, freezing and thawing 4 times",0.63
same,Increase or decrease,"[2]; detection intensity, serum, GC/MS, freezing and thawing 4 times vs 2 times",Decrease
same,Rate of increase or decrease,"[3]; detection intensity relative to 1 at 30 minutes, after 1 hour",2.06
same,Increase or decrease,"[3]; detection intensity, after 1 hour vs 30 minutes",Increase
O=S(=O)(O)Oc1c[nH]c2ccccc12 [Indoxyl sulfate],Rate of increase or decrease,[1]; freezing and thawing 6 times,0.68
same,Increase or decrease,[1]; [6],Decrease
same,Rate of increase or decrease,[4],1.50
same,Increase or decrease,[4]; after 12 hours vs 15 minutes,Increase
CCCCCCCCCCCCCCCC(=O)O [Palmitic acid],Rate of increase or decrease,[4],4.05
same,Increase or decrease,[4]; after 12 hours vs 15 minutes,Increase
CCCCC/C=C\C/C=C\CCCCCCCC(=O)O [Linoleic acid],Rate of increase or decrease,[4],1.34
same,Increase or decrease,[4]; after 12 hours vs 15 minutes,Increase
O[C@H]1[C@H](O)[C@@H](O)[C@H](O)[C@@H](O)[C@@H]1O [Scyllo-inositol],Rate of increase or decrease,[5]; after 8 hours,0.66
same,Increase or decrease,[5]; after 8 hours vs 15 minutes,Decrease
same,Rate of increase or decrease,[1]; freezing and thawing 6 times,0.68
same,Increase or decrease,[1]; [6],Decrease
NCCc1c[nH]c2ccccc12 [Tryptamine],Rate of increase or decrease,[1]; freezing and thawing 10 times,0.69
same,Increase or decrease,[1]; freezing and thawing 10 times vs 2 times,Decrease
CC(C)CCC[C@@H](C)[C@H]1CC[C@H]2[C@@H]3CC=C4C[C@@H](O)CC[C@]4(C)[C@H]3CC[C@]12C [Cholesterol],Rate of increase or decrease,[4],1.38
same,Increase or decrease,[4]; after 12 hours vs 15 minutes,Increase
O=C(CO)[C@H](O)[C@@H](O)[C@H](O)CO [Sorbose],Rate of increase or decrease,[5]; after 4 hours,1.53
same,Increase or decrease,[5]; after 4 hours vs 15 minutes,Increase
same,Rate of increase or decrease,[2]; 10 times of freezing and thawing,0.68
same,Number of times when compound is affected,"[2]; serum sample, GC/MS, detection intensity changed by 30% or more vs 2 times of freezing and thawing",10 times
same,Increase or decrease,"[2]; serum sample, GC/MS, detection intensity vs 2 times of freezing and thawing",Decrease
same,Increase or decrease,[4]; after 4 hours vs 15 minutes,Different from individual
same,"Rate of increase or decrease (second value, decrease)","[4]; different from individual to individual, individuals with decrease, relative to 1 at 15 minutes, collection to centrifugation, after 4 hours",0.67
same,"Rate of increase or decrease (first value, increase)","[4]; different from individual to individual, individuals with increase, relative to 1 at 15 minutes, collection to centrifugation, after 4 hours",2.10
CC(CN)C(=O)O (stereo not shown) [3-Aminoisobutyric acid],Rate of increase or decrease,"[2]; serum, GC/MS, freezing and thawing 10 times",1.47
same,Increase or decrease,"[2]; detection intensity, serum, GC/MS, freezing and thawing 10 times vs 2 times",Increase
same,Rate of increase or decrease,[4],1.44
same,Increase or decrease,[4]; after 12 hours vs 15 minutes,Increase
